Structures can show the parent of a compound that is named as a salt. Starred links: 1 amine or outer side, 2 acyl side, 3 side chain; linkers in the order of their positions; H or OH if unused. Non-standard residues stand in square brackets, D forms with d. Residues, ends and D or L forms follow the SMILES beside them. Groups on a side chain read outwards from the residue. Primed or numbered codes have the meaning given here. *: point of attachment. F(4amPEG2NHDOTA-Lu)″ = lutetium (S)-2,2',2''-(10-(1-(4-(2-amino-2-carboxyethyl)phenyl)-3,12-dioxo-5,8-dioxa-2,11-diazatridecan-13-yl)-1,4,7,10-tetraazacyclododecane-1,4,7-triyl)triacetic acid, O=C([O-])CN1CCN(CC(=O)[O-])CCN(CC(=O)NCCOCCOCC(=O)NCc2ccc(C[C@H](N[*:1])C(=O)[*:2])cc2)CCN(CC(=O)[O-])CC1.[Lu+3]; X4 = 4‑(carboxymethyl)piperazine‑1‑carbonyl, O=C(O)CN1CCN(C(=O)*)CC1; hS(Pr) = O-propyl-L-homoserine, CCCOCC[C@H](N[*:1])C(=O)[*:2]; DOTA = O=C(O)CN1CCN(CC(=O)O)CCN(CC(=O)*)CCN(CC(=O)O)CC1; Piperazinyl(4-CH2COOH) = O=C(O)CN1CCN(*)CC1; NMeAla(cPent) = CN[C@@H](CC1CCCC1)C(=O)O; AEF = NCCOc1ccc(C[C@H](N)C(=O)O)cc1; NMeF = CN[C@@H](Cc1ccccc1)C(=O)O; Ahp(2) = CCCCC[C@H](N)C(=O)O; dPip = O=C(O)[C@H]1CCCCN1; hSer = N[C@@H](CCO)C(=O)O; CO = O=C([*:1])[*:2]
Assays:
[1] = molecular target: T1, mouse FAP (Mus musculus, UniProt P97321); test: Surface plasmon resonance (SPR) for peptide affinity, mouse FAP; format: binding
T1 construct: biotinylated His, Avi tag, mouse FAP (26-761, FAP-M82Q5); His; Avi tag (biotinylated); purchased AcroBiosystems FAP-M82Q5
T1 sequence (P97321 26-761): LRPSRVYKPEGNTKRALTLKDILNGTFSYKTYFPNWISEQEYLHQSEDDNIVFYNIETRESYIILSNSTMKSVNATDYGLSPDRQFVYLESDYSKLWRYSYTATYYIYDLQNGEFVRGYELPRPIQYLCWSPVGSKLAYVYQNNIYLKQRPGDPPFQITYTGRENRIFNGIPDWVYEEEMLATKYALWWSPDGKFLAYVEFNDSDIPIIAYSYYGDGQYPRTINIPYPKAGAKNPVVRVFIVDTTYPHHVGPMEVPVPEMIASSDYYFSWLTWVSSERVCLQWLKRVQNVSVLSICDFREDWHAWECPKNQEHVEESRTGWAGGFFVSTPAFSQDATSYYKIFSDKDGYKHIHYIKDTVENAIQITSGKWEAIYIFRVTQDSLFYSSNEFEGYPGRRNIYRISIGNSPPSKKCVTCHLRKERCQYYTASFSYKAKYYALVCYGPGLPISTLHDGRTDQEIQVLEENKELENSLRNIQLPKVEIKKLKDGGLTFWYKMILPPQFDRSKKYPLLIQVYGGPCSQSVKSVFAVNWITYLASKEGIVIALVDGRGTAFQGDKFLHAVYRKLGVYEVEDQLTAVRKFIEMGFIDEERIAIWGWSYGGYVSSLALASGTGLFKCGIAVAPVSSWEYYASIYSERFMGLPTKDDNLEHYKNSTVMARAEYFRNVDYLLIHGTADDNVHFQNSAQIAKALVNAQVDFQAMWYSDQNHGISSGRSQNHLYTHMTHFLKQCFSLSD
Procedure: Peptide affinities (KD) were determined by SPR using a Biacore™ 8K device (Cytiva) towards the following proteins: biotinylated His, Avi tag, human FAP (26-760, FAP-H82Q6), biotinylated His, Avi tag, mouse FAP (26-761, FAP-M82Q5), His tag, human DPP4 (34-766, DP4-H82E3), all purchased from AcroBiosystems and His tag, mouse DPP4 (29-760, 954-SE) from R&D Systems. The FAP proteins and their homologous were diluted to a concentration of 2 μg/mL into acetate buffer pH 5.5, then immobilized onto a CM5 sensorchip (Cytiva, BR-1005-30) to reach a response around 2000 R U. The running buffer HBS-EP+pH 7.6 (20× from Teknova CAT. No: H8022) contained 10 mM HEPES pH 7.6, 150 mM NaCl, 3 mM EDTA, 0.05% Tween20 and 2% DMSO. Experiments were carried out at 25° C. using a flow rate of 30 μL/min. Compounds were tested in single cycle kinetic mode at 8 different concentrations. Curve fitting was performed using the Biacore™ 8K evaluation software. The sensorgrams were fitted by applying a 1:1 binding model to calculate kinetic rate constants and equilibrium dissociation constants (KD).
For this assay, the setup had the same conditions (flow rate, running buffer, peptide dilution) as described above for the CM5 method. The oligo CAP reagent obtained in the CAPture Kit (Ref. 28920234) was 1/5 diluted into running buffer and used with a contact time of 300 s at a flow rate of 2 μL/min. The human and mouse FAP constructs described above were used (from AcroBiosystems or produced in house). The FAP proteins were diluted to a concentration of 2 μg/mL into acetate pH 5.5, 0.05% Tween20 and used with a contact time of 600 s at a flow rate of 10 μL/min. The peptides were tested with an association time of 280 s followed by a dissociation time of 3000 s at a flow rate of 30 μL/min. The regeneration was done using the regeneration solution (8 M guanidine-HCl, 1 M NaOH) as obtained with a contact time of 270 s at a flow rate of 10 μL/min. […] The compounds marked with an asterisk were tested against human and mouse DDP4.

[2] = molecular target: T1, mouse FAP; test: Enzymatic FAP competition assay (Z-Gly-Pro-AMC fluorescence), mouse FAP; format: biochemical; conditions: read-out: m. FAP, Enz., IC50
Procedure: (§1) Peptide potencies (IC50) to inhibit the FAP enzymatic activity were determined using a fluorescence-based assay towards the biotinylated His, Avi tag, human FAP (26-760, FAP-H82Q6) and the biotinylated His, Avi tag, mouse FAP (26-761, FAP-M82Q5). Standard assay conditions consisted of 20 μL total volume in white 384-well plates (Greiner, Ref. 784075), in 50 mM phosphate buffer pH 7.5 containing 150 mM NaCl, 0.05% Tween20 and 1% final DMSO. Tested peptides at 14 different concentrations up to 1 μM were added to 0.01 nM human or mouse FAP. The peptides were incubated for 24 hours together with the protein before adding the substrate 50 μM Z-Gly-Pro-AMC (I-1145 from Bachem). Samples were then incubated at 22-24° C. for 4 h before reading the fluorescence at excitation wavelength of 380 nm and emission wavelength of 460 nm using the Tecan Infinite® M1000 PRO. The high control (100% activity) was not containing any peptide, and an internal potent peptide was added at 10 μM concentration for the low control (100% inhibition). IC50 values were calculated by curve fitting using an in-house developed software (Novartis Helios software application) using the method described by Fomenko et al., 2006 (regression algorithms for nonlinear dose-response curve fitting). Following normalization of activity values for the wells to % inhibition (% inhibition=[(high control-sample)/(high control-low control)]x 100). IC50 fitting was carried out from the duplicated points.

[3] = molecular target: T2, human FAP (Homo sapiens, UniProt Q12884); test: Enzymatic FAP competition assay (Z-Gly-Pro-AMC fluorescence), human FAP; format: biochemical; conditions: read-out: h. FAP, Enz., IC50
T2 construct: the biotinylated His, Avi tag, human FAP (26-760, FAP-H82Q6); His; Avi tag (biotinylated); purchased AcroBiosystems FAP-H82Q6
T2 sequence (Q12884 26-760): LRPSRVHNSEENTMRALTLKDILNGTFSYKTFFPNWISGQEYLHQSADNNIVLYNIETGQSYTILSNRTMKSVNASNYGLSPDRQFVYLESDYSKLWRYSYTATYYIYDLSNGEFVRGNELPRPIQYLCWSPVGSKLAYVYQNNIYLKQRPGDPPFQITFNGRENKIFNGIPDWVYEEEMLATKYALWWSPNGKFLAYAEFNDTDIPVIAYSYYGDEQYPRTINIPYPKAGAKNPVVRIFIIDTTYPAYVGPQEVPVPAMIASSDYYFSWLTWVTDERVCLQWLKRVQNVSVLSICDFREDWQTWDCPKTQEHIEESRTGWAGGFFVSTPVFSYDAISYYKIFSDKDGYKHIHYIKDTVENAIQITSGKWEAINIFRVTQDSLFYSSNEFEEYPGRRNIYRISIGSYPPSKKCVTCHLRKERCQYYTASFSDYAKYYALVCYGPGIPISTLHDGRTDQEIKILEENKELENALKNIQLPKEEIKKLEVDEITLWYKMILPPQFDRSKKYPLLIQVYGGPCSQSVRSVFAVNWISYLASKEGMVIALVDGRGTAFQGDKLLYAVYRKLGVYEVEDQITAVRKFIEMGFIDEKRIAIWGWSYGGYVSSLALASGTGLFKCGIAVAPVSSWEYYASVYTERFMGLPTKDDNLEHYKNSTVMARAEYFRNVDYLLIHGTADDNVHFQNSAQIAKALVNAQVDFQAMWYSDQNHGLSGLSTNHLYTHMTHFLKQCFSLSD
Procedure: as §1

Row | Kd [1] [nM] | IC50 [2] [nM] | IC50 [3] [nM] | Compound
1 | 0.188 | 0.178 | 0.071 | CCCCC[C@@H]1NC(=O)[C@H](Cc2ccc(OCCN)cc2)NC(=O)[C@H](Cc2ccccc2)N(C)C(=O)CNC(=O)CNC(=O)[C@H]2CCCN2C(=O)[C@H](CC(=O)O)NC(=O)[C@H](CCCCNC(=O)N2CCN(CC(=O)O)CC2)NC(=O)CNC(=O)[C@H](Cc2c[nH]c3ccccc23)NC1=O [Example A6, 2-((9S,12S,15S,18S,24S,27S,32aR)-18-((1H-indol-3-yl)methyl)-12-(4-(2-aminoethoxy)benzyl)-9-benzyl-24-(4-(4-(carboxymethyl)piperazine-1-carboxamido)butyl)-8-methyl-1,4,7,10,13,16,19,22,25,28-decaoxo-15-pentyldotriacontahydropyrrolo[1,2-a][1,4,7,10,13,16,19,22,25,28]decaazacyclotriacontin-27-yl)acetic acid TFA salt] (cyclo([AEF][Ahp(2)]WGK([CO-Piperazinyl(4-CH2COOH)])D[dP]GG[NMeF]))
2 | < 0.031 | 0.03 | 0.016 | Pro-Gly-NMePhe-F(4amPEG2NHDOTA-Lu)-hS(Pr)-Trp-Gly-K(COpipzaa)-Asp-D-Pro (cyclo(PG[NMeF][F(4amPEG2NHDOTA-Lu)″][hS(Pr)]WGK(X4)D[dP])) [Example C20]
3 | 0.46 | 1.2 | 0.27 | CCCCC[C@@H]1NC(=O)[C@H](Cc2ccc(O)cc2)NC(=O)[C@H](Cc2ccccc2)N(C)C(=O)CNC(=O)CNC(=O)[C@H]2CCCCN2C(=O)[C@H](CC(=O)O)NC(=O)[C@H](Cc2ccc(O)cc2)NC(=O)CNC(=O)[C@H](Cc2c[nH]c3ccccc23)NC1=O [Example A66, Gly-Gly-NMePhe-Tyr-Ahp-Trp-Gly-Tyr-Asp-Pi(2R-COOH)] (cyclo([Ahp(2)]WGYD[dPip]GG[NMeF]Y))
4 | 2.7 | 2.5 | 0.54 | CCCCC[C@@H]1NC(=O)[C@H](Cc2ccc(O)cc2)NC(=O)[C@H](CC2CCCC2)N(C)C(=O)CNC(=O)[C@H](CCCCN)NC(=O)[C@H]2CCCN2C(=O)[C@H](CC(=O)O)NC(=O)[C@H](Cc2ccc(O)cc2)NC(=O)CNC(=O)[C@H](Cc2c[nH]c3ccccc23)NC1=O [Example A44, Lys-Gly-NMecPenA-Tyr-Ahp-Trp-Gly-Tyr-Asp-D-Pro, TFA salt] (cyclo([Ahp(2)]WGYD[dP]KG[NMeAla(cPent)]Y))

Row | Compound | Kd [1] [nM] | IC50 [2] [nM] | IC50 [3] [nM]
5 | CCCCC[C@@H]1NC(=O)[C@H](Cc2ccc(OCCNC(=O)CN3CCN(CC(=O)O)CCN(CC(=O)O)CCN(CC(=O)O)CC3)cc2)NC(=O)[C@H](Cc2ccccc2)N(C)C(=O)CNC(=O)[C@H](CCO)NC(=O)[C@H]2CCCN2C(=O)[C@H](CC(=O)O)NC(=O)[C@H](Cc2ccc(O)cc2)NC(=O)CNC(=O)[C@H](Cc2c[nH]c3ccccc23)NC1=O [Example B26, hSer-Gly-NMePhe-F(4OEtNHDOTA)-Ahp-Trp-Gly-Tyr-Asp-D-Pro, TFA salt] (cyclo([hSer]G[NMeF][AEF](DOTA)[Ahp(2)]WGYD[dP])) | 0.105 | 0.117 | 0.027
